Assays:
[1] = biological target: 5-hydroxytryptamine receptor 5A (Rattus norvegicus, UniProt P35364)
[2] = biological target: 5-hydroxytryptamine receptor 5B (Rattus norvegicus, UniProt P35365)
Chain of 5-hydroxytryptamine receptor 5B (P35365 whole entry): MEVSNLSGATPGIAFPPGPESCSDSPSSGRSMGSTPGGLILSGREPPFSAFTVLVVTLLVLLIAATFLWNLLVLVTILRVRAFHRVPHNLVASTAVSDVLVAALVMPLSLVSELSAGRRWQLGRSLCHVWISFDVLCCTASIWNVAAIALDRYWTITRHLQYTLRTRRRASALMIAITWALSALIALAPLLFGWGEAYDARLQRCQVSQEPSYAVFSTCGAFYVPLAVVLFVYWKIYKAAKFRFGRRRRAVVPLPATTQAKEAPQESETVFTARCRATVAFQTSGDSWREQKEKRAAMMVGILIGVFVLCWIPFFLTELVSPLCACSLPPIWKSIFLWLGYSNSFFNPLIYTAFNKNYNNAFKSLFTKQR

Chain of 5-hydroxytryptamine receptor 5A (P35364 whole entry): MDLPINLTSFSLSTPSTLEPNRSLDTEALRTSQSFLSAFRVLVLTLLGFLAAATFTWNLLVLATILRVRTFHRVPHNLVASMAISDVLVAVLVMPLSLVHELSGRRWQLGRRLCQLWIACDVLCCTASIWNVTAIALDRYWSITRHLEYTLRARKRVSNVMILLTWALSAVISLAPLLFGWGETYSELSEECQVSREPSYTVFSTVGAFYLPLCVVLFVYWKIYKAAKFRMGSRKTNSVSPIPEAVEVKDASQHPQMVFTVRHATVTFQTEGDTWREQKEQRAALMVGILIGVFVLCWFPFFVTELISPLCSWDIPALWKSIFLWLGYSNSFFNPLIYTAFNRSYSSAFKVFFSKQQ

CN1C[C@H](CNC(=O)OCc2ccccc2)C[C@@H]2c3cccc4c3c(cn4C)C[C@H]21 [METERGOLINE]
Ki [1]: 1000 nM
Ki [2]: 1000 nM

NCCc1ccc(O)c(O)c1
Ki [1]: 1000 nM
Ki [2]: 1000 nM

COc1ccc2[nH]cc(CCNC(C)=O)c2c1
Ki [1]: 1000 nM
Ki [2]: 1000 nM

NCCc1c[nH]c2ccc(C(N)=O)cc12 [[3H]-5-carboxamidotryptamine]
Ki [2]: 12.6 nM

COc1cc(CC(C)N)c(OC)cc1I (stereo unspecified) [[125I]2,5-dimethoxy-4-iodoamphetamine]
Ki [1]: 1000 nM
Ki [2]: 1000 nM

CN1C[C@@H](NS(=O)(=O)N(C)C)C[C@@H]2c3cccc4c3c(cn4C)C[C@H]21 [MESULERGINE]
Ki [1]: 1000 nM
Ki [2]: 1000 nM

CSc1ccc2c(c1)C(N1CCN(C)CC1)Cc1ccccc1S2 (stereo unspecified) [methanesulfonic acid;1-methyl-4-(3-methylsulfanyl-5,6-dihydrobenzo[b][1]benzothiepin-5-yl)piperazine]
Ki [1]: 146 nM

COc1cc(N)c(Cl)cc1C(=O)NC1CN2CCC1CC2 (stereo unspecified) [ZACOPRIDE,R]
Ki [1]: 1000 nM
Ki [2]: 1000 nM

CC[C@@H](CO)NC(=O)[C@@H]1C=C2c3cccc4c3c(cn4C)C[C@H]2N(C)C1
Ki [1]: 1000 nM
Ki [2]: 196 nM

CCCN(CCC)C1CCc2cccc(O)c2C1 (stereo unspecified)
Ki [1]: 1000 nM
Ki [2]: 1000 nM

NCCc1c[nH]c2ccc(O)cc12 [[3H]-5-HT]
Ki [1]: 1330 nM

NCC(O)c1ccc(O)c(O)c1 (stereo not drawn) [Noradrenaline,(+)]
Ki [1]: 1000 nM
Ki [2]: 1000 nM
